Data on 27 compounds can be found in patent US7928107B2, “Quinazolines useful as modulators of ion channels” (Vertex Pharmaceuticals Incorporated, priority 2004, dated 2011).

SMILES strings stand for the structures.

In the experiment the target is NaV 1.8 channel (Homo sapiens, UniProt Q9Y5Y9). Description: Activity against NaV 1.8 channel (optical membrane potential assay). Format: cell-based. In a few lines:
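FRET membrane-potential assay (coumarin CC2-DMPE donor, oxonol DiSBAC2(3) acceptor plus veratridine) on VIPR; compound added with oxonol for 20–30 min before Na+ add-back stimulation. Activity from background-subtracted 460/580 nm ratio change (baseline 2–7 s, response 15–24 s) relative to tetracaine positive and drug-free negative controls.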

NaV 1.8 channel, sequence (Q9Y5Y9 whole entry): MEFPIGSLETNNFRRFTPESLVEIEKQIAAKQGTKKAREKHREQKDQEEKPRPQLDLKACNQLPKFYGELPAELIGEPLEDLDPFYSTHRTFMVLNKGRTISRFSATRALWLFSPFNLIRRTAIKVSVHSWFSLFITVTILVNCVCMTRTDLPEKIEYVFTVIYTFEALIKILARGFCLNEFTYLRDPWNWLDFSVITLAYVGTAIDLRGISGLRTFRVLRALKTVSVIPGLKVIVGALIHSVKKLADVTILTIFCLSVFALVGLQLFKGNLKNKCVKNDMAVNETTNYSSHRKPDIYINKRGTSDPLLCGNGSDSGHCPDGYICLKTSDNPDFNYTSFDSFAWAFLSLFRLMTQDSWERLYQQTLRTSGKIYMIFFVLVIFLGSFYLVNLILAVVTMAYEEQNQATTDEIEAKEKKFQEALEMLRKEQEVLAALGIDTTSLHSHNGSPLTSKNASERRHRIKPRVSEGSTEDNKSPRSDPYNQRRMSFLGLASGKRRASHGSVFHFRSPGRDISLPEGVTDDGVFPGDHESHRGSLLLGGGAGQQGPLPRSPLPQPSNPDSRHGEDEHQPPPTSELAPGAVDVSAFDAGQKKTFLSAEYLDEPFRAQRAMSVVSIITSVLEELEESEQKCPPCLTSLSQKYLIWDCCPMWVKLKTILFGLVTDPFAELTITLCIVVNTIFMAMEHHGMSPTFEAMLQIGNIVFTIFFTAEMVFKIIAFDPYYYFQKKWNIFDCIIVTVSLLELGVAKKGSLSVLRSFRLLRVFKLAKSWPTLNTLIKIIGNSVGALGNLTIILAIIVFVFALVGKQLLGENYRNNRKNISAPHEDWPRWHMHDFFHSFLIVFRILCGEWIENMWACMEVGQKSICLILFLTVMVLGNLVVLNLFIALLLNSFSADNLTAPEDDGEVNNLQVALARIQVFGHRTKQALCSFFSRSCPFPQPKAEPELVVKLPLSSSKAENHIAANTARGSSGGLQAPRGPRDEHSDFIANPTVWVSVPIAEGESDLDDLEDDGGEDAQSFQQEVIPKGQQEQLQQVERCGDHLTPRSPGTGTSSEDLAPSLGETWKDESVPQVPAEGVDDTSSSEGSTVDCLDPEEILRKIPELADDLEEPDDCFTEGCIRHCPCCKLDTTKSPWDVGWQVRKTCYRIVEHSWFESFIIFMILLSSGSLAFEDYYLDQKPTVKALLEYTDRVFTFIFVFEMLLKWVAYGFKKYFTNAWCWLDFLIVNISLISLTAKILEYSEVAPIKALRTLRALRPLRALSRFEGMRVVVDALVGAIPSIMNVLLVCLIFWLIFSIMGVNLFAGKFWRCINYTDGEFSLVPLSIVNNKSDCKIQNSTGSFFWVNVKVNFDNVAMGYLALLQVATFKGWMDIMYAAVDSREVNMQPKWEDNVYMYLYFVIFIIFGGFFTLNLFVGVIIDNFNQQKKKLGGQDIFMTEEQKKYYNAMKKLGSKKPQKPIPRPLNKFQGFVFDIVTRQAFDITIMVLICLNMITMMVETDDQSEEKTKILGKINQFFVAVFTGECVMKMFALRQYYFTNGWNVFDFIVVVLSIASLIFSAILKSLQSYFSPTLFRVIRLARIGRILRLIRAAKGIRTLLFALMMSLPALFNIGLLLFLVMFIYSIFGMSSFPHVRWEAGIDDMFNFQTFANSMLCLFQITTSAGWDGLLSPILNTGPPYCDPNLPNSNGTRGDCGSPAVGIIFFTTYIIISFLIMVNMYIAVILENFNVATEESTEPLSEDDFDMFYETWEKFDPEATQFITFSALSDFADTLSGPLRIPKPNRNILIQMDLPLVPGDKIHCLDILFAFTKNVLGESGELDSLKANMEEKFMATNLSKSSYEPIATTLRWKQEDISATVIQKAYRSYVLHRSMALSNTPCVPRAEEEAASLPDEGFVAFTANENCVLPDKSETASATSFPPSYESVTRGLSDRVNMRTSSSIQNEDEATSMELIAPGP

`COCCOC(=O)NC[C@@H]1CCN(c2nc(-c3c(O)cccc3F)nc3cc(C)ccc23)C1` [Example 373, 2-Methoxyethyl ((S)-1-(2-(2-fluoro-6-hydroxyphenyl)-7-methylquinazolin-4-yl)pyrrolidin-3-yl)methylcarbamate]: the IC50 (in general, the concentration needed to halve the response being measured) was 2 to 10 µM.

Consider `Cc1ccc2c(N3CC[C@@H](CNC(=O)C4CC4)C3)nc(-c3ccccc3O)nc2c1` [Example 311, N—(((S)-1-(2-(2-Hydroxyphenyl)-7-methylquinazolin-4-yl)pyrrolidin-3-yl)methyl)cyclopropanecarboxamide], for which the IC50 was under 2 µM.

In the case of `Cc1ccc2c(N3CC[C@@H](NC(=O)CCC4CCCC4)C3)nc(-c3ccccc3O)nc2c1` [Example 323, (R)-3-Cyclopentyl-N-{1-[2-(2-hydroxy-phenyl)-7-methyl-quinazolin-4-yl]-pyrrolidin-3-yl}-propionamide], the IC50 was over 10 µM.

`Cc1ccc2c(N3CCN(C(=O)CCC4CCCC4)CC3)nc(-c3ccccc3O)nc2c1` [Example 127, 3-Cyclopentyl-1-(4-(2-(2-hydroxyphenyl)-7-methylquinazolin-4-yl)piperazin-1-yl)propan-1-one]: the IC50 was under 2 µM.

As to `CC(C)=CC(O)C(=O)N1CCN(c2nc(-c3ccccc3O)nc3cc(C)ccc23)CC1` (stereo not drawn) [Example 189], the IC50 lay within 2 to 10 µM.

In the case of `Cc1ccc2c(N3CCC[C@H](NC(=O)O[C@@H]4CCOC4)C3)nc(-c3ccccc3O)nc2c1` [Example 203, (R)-Tetrahydrofuran-3-yl (S)-1-(2-(2-hydroxyphenyl)-7-methylquinazolin-4-yl)piperidin-3-ylcarbamate], the IC50 is over 10 µM.

With `Cc1ccc2c(N3CCC[C@H](NC(=O)[C@H]4CCCO4)C3)nc(-c3ccccc3O)nc2c1` [Example 205, (2R)-Tetrahydro-N—((S)-1-(2-(2-hydroxyphenyl)-7-methylquinazolin-4-yl)piperidin-3-yl)furan-2-carboxamide], the IC50 was over 10 µM.

Regarding `Cc1ccc2c(N3CCC[C@H](NC(=O)O[C@H]4CCOC4)C3)nc(-c3ccccc3O)nc2c1` [Example 204, (S)-Tetrahydrofuran-3-yl (S)-1-(2-(2-hydroxyphenyl)-7-methylquinazolin-4-yl)piperidin-3-ylcarbamate], the IC50 is over 10 µM.

As for `Cc1ccc2c(N3CCCC(CNC(=O)O[C@@H]4CCOC4)C3)nc(-c3ccccc3O)nc2c1` (stereo partly drawn) [Example 210, (R)-Tetrahydrofuran-3-yl (1-(2-(2-hydroxyphenyl)-7-methylquinazolin-4-yl)piperidin-3-yl)methylcarbamate], the IC50 is 2 to 10 µM.

As for `Cc1ccc2c(N3CCN(C(=O)CCN4CCCCC4)CC3)nc(-c3ccccc3O)nc2c1` [Example 175, 1-(4-(2-(2-Hydroxyphenyl)-7-methylquinazolin-4-yl)piperazin-1-yl)-3-(piperidin-1-yl)propan-1-one], the IC50 is over 10 µM.

With `Cc1ccc2c(N3CCC[C@@H](NC(=O)OCC(C)C)C3)nc(-c3ccccc3O)nc2c1` [Example 282], the IC50 was under 2 µM.

Take `Cc1ccc2c(N3CCCC(CNC(=O)O[C@H]4CCOC4)C3)nc(-c3ccccc3O)nc2c1` (stereo partly drawn) [Example 211, (S)-Tetrahydrofuran-3-yl (1-(2-(2-hydroxyphenyl)-7-methylquinazolin-4-yl)piperidin-3-yl)methylcarbamate]: the IC50 was over 10 µM.

Turning to `Cc1ccc2c(N3CC(C(=O)NCc4ccncc4)C3)nc(-c3ccccc3O)nc2c1` [Example 401, 1-(2-(2-Hydroxyphenyl)-7-methylquinazolin-4-yl)-N-((pyridin-4-yl)methyl)azetidine-3-carboxamide], the IC50 was over 10 µM.

`CCCOC(=O)NC[C@@H]1CCN(c2nc(-c3ccccc3O)nc3ccc(F)cc23)C1` [Example 374, Propyl ((S)-1-(6-fluoro-2-(2-hydroxyphenyl)quinazolin-4-yl)pyrrolidin-3-yl)methylcarbamate]: the IC50 is over 10 µM.

Take `Cc1ccc2c(N3CCC[C@@H](CNC(=O)OCC(C)C)C3)nc(-c3c(O)cccc3F)nc2c1` [Example 260, Isobutyl ((S)-1-(2-(2-fluoro-6-hydroxyphenyl)-7-methylquinazolin-4-yl)piperidin-3-yl)methylcarbamate]: the IC50 is under 2 µM.

On to `Cc1ccc2c(N3CCC[C@@H](CNC(=O)O[C@@H]4CCOC4)C3)nc(-c3ccccc3O)nc2c1` [Example 214, (R)-Tetrahydrofuran-3-yl ((S)-1-(2-(2-hydroxyphenyl)-7-methylquinazolin-4-yl)piperidin-3-yl)methylcarbamate], for which the IC50 was over 10 µM.

With `Cc1ccc2c(N3CC[C@@H](NC(=O)c4ccccn4)C3)nc(-c3c(O)cccc3F)nc2c1` [Example 351, N—((R)-1-(2-(2-Fluoro-6-hydroxyphenyl)-7-methylquinazolin-4-yl)pyrrolidin-3-yl)picolinamide], the IC50 was in the range of 2 to 10 µM.

Take `Cc1ccc2c(N3CCN(C(=O)CC4CCOCC4)CC3)nc(-c3ccccc3O)nc2c1` [Example 105]: the IC50 is 2 to 10 µM.

As to `Cc1ccc2c(N3CCN(C(=O)[C@H](O)CC(N)=O)CC3)nc(-c3ccccc3O)nc2c1` [Example 154, (R)-3-Hydroxy-4-(4-(2-(2-hydroxyphenyl)-7-methylquinazolin-4-yl)piperazin-1-yl)-4-oxobutanamide], the IC50 is over 10 µM.

`Cc1ccc2c(N3CCC[C@@H](CNC(=O)C4CC4)C3)nc(-c3ccccc3O)nc2c1` [Example 226, N—(((S)-1-(2-(2-Hydroxyphenyl)-7-methylquinazolin-4-yl)piperidin-3-yl)methyl)cyclopropanecarboxamide]: the IC50 was over 10 µM.

Turning to `Cc1ccc2c(N3CCN(C(=O)C(O)c4ccc(F)cc4)CC3)nc(-c3ccccc3O)nc2c1` (stereo not drawn) [Example 170, 2-(4-Fluorophenyl)-2-hydroxy-1-(4-(2-(2-hydroxyphenyl)-7-methylquinazolin-4-yl)piperazin-1-yl)ethanone], the IC50 is over 10 µM.

In the case of `COCCOC(=O)NC[C@@H]1CCCN(c2nc(-c3c(O)cccc3F)nc3cc(C)ccc23)C1` [Example 261, 2-Methoxyethyl ((S)-1-(2-(2-fluoro-6-hydroxyphenyl)-7-methylquinazolin-4-yl)piperidin-3-yl)methylcarbamate], the IC50 fell in the range of 2 to 10 µM.

For `CCCC(O)C(=O)N1CCN(c2nc(-c3ccccc3O)nc3ccccc23)CC1` (stereo not drawn) [Example 174, 2-Hydroxy-1-(4-(2-(2-hydroxyphenyl)quinazolin-4-yl)piperazin-1-yl)pentan-1-one], the IC50 was in the range of 2 to 10 µM.

Regarding `CCC(O)(CC)C(=O)NC1CCN(c2nc(-c3ccccc3O)nc3cc(C)ccc23)CC1` [Example 234, 2-Ethyl-2-hydroxy-N-(1-(2-(2-hydroxyphenyl)-7-methylquinazolin-4-yl)piperidin-4-yl)butanamide], the IC50 is over 10 µM.

Consider `Cc1ccc2c(N3CCC[C@@H](CNC(=O)O[C@H]4CCOC4)C3)nc(-c3c(O)cccc3F)nc2c1` [Example 231, (S)-Tetrahydrofuran-3-yl ((S)-1-(2-(2-fluoro-6-hydroxyphenyl)-7-methylquinazolin-4-yl)piperidin-3-yl)methylcarbamate], for which the IC50 was 2 to 10 µM.

Regarding `COCCOC(=O)NCC1CN(c2nc(-c3ccccc3O)nc3cc(C)ccc23)C1` [Example 419], the IC50 is 2 to 10 µM.

As to `Cc1ccc2c(N3CCC(NC(=O)OCC4CCCO4)CC3)nc(-c3ccccc3O)nc2c1` (stereo not drawn) [Example 274], the IC50 was in the range of 2 to 10 µM.
